Some test systems named below: Vibrio litoralis H1; Vibrio scophthalmi ZS1; Aeromonas hydrophila; Escherichia coli; Staphylococcus aureus; Streptococcus pyogenes; Vibrio alginolyticus; Vibrio fluvialis; Vibrio parahaemolyticus.
Common to all, as to assay: ≥ marks a high value that may be exact or a test limit, other limits are often not marked, values filed in µg/mL are converted to µM
In assay [1] the test system is Candida albicans ATCC 64550.
In assay [2] the test system is Micrococcus luteus 1D00051.
The test system of assay [3] is Staphylococcus aureus 1D00101.
The test system of assay [4] is Vibrio ichthyoenteri 1A00057.
Assay [5] concerns Vibrio vulnificus 1H00066.
Assay [6] concerns Streptococcus gordonii ATCC 10558.
For assay [7], the system named is Streptococcus mutans GS-5.
The test system of assay [8] is Streptococcus mutans UA159.
Assay [9] relates to Streptococcus sanguinis ATCC 49295.

Converted amounts (≈) assume the structure as drawn.

One may read the MIC as the smallest concentration in the dilution series that meets the test's criterion for growth inhibition. Regarding `CC(=O)N[C@@H](C)C(=O)N[C@@H](C)C(=O)N[C@@H](C)C(=O)N[C@@H](C)C(=O)N[C@@H](C)C(=O)N[C@@H](C)C(=O)N[C@@H](C)C(=O)N[C@@H](C)C(=O)N[C@@H](C)C(=O)N[C@@H](CCCCN)C(N)=O` [AAAAAAAAAK], in [1], the MIC was not below 100 µM.
In the case of `CSCC[C@H](NC(=O)[C@H](CCCN=C(N)N)NC(=O)[C@H](Cc1cnc[nH]1)NC(=O)CNC(=O)[C@H](CCCCN)NC(=O)CNC(=O)[C@H](CCC(N)=O)NC(=O)[C@H](CCCN=C(N)N)NC(=O)[C@H](CCCCN)NC(=O)[C@H](Cc1ccc(O)cc1)NC(=O)[C@H](CCCCN)NC(=O)[C@H](CCCCN)NC(=O)CNC(=O)CNC(=O)[C@H](CCCCN)NC(=O)[C@@H](NC(=O)[C@@H](N)CS)C(C)C)C(=O)N[C@@H](CCCN=C(N)N)C(=O)N[C@@H](CCCN=C(N)N)C(=O)N[C@@H](Cc1ccc(O)cc1)C(=O)N[C@@H](CCCN=C(N)N)C(=O)N[C@@H](CC(N)=O)C(=O)N[C@@H](CC(N)=O)C(=O)N[C@@H](Cc1cnc[nH]1)C(=O)O` [CVKGGKKYKRQGKGHRMRRYRNNH], the MIC was 3 µM (≈ 8.88 µg/mL) in [2]; 6 µM (≈ 17.8 µg/mL) in assay [3]; not below 85 µM in [4]; 11 µM (≈ 32.5 µg/mL) against Vibrio litoralis H1; not below 340 µM in the assay with Vibrio scophthalmi ZS1; not below 170 µM in assay [5].
Take `CC(C)C[C@H](NC(=O)[C@H](CCCN=C(N)N)NC(=O)[C@H](Cc1ccccc1)NC(=O)[C@H](Cc1ccccc1)NC(=O)[C@@H](NC(=O)[C@H](CO)NC(=O)[C@@H](N)CC(C)C)[C@@H](C)O)C(=O)N[C@@H](Cc1ccccc1)C(=O)N[C@@H](CC(N)=O)C(=O)N[C@@H](CCCN=C(N)N)C(=O)N[C@@H](CO)C(=O)N[C@@H](Cc1ccccc1)C(=O)N[C@H](C(=O)N[C@@H](CCC(N)=O)C(=O)NCC(=O)N[C@@H](CCCN=C(N)N)C(=O)N[C@@H](CCCN=C(N)N)C(=O)N[C@@H](CCCN=C(N)N)C(=O)N[C@@H](CCCN=C(N)N)C(=O)N[C@@H](CO)C(=O)N[C@H](C(=O)N[C@@H](CCC(N)=O)C(=O)N[C@@H](Cc1c[nH]c2ccccc12)C(=O)N[C@@H](CS)C(=O)N[C@@H](C)C(=O)O)C(C)C)[C@@H](C)O` [LSTFFRLFNRSFTQGRRRRSVQWCA]: the MIC in assay [6] was determined as 16 µM (≈ 49.8 µg/mL); in [7], 4.27 µM (≈ 13.3 µg/mL); in assay [8] it was 3.42 µM (≈ 10.7 µg/mL); in [9] it was 31.9 µM (≈ 99.6 µg/mL).
As for `CC[C@H](C)[C@H](NC(=O)[C@H](CCCCN)NC(=O)[C@H](Cc1cnc[nH]1)NC(=O)[C@H](CC(C)C)NC(=O)[C@H](CC(C)C)NC(=O)[C@H](Cc1ccccc1)NC(=O)[C@H](CC(N)=O)NC(=O)[C@@H](N)C(C)C)C(=O)N[C@@H](Cc1ccc(O)cc1)C(=O)NCC(=O)N[C@@H](CC(N)=O)C(=O)N[C@H](C(=O)N[C@@H](CCCN=C(N)N)C(=O)N[C@@H](CC(=O)O)C(=O)N[C@@H](CO)C(=O)O)[C@@H](C)CC` [VNFLLHKIYGNIRDS], the MIC with Aeromonas hydrophila is 2.18 µM (≈ 3.9 µg/mL); in the assay on Escherichia coli it was 2.18 µM (≈ 3.9 µg/mL); against Staphylococcus aureus it was 34.9 µM (≈ 62.5 µg/mL); in the assay on Streptococcus pyogenes it was not below 34.9 µM; against Vibrio alginolyticus it was 2.18 µM (≈ 3.9 µg/mL); in the assay with Vibrio fluvialis, not below 34.9 µM. Moreover, the MIC against Vibrio parahaemolyticus is 18 µM (≈ 32.2 µg/mL).

The record behind these values is DBAASP.
